In article PMC9597486, “Screening of protonstatin-1 (PS-1) analogs for improved inhibitors of plant plasma membrane H^+-ATPase activity” (Frontiers in Plant Science, 2022):

Target: T1, AHA2 central loop (recombinant His-AHA2 central loop) (Arabidopsis thaliana, UniProt P19456)
T1 construct: cytosolic central loop domain only, His-tagged recombinant, fluorescently labelled with NanoTemper RED protein labelling kit
T1 sequence (P19456 292-643 limits assumed): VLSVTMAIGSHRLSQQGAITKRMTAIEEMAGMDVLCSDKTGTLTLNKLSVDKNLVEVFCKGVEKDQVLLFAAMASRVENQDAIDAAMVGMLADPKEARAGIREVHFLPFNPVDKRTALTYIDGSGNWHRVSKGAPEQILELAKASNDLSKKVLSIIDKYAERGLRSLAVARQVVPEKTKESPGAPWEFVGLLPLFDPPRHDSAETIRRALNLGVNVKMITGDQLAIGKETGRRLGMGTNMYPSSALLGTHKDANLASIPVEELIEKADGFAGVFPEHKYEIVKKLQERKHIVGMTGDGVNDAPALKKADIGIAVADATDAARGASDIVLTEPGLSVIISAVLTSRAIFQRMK
Assay: microscale thermophoresis
Assay type: binding

| Kd | Structure (SMILES) |
| --- | --- |
| 4880 ± 660 nM | O=C1NC(=S)S/C1=C\c1ccco1 [PS-1, (Z)-5-(furan-2-ylmethylene)-2-thioxothiazolidin-4-one] |
| 550 ± 50 nM | O=C1NC(=S)S/C1=C\c1ccc[nH]1 [compound 27, (Z)-5-((1H-pyrrol-2-yl)methylene)-2-thioxothiazolidin-4-one] |
